Laboratory results published in article PMC4550478, “Metronidazole-triazole conjugates: Activity against Clostridium difficile and parasites” (European Journal of Medicinal Chemistry, 2015).
In brackets after ≈: the same amount, converted by molar mass. Read-outs that look alike come from different tables or passages of the source.

How the values were obtained:
Type in all cases: cell-based, Clostridium difficile
[1] = system: C. difficile NAP1/027 CD26A54_R; assay: MIC broth microdilution, metronidazole resistant C. difficile CD26A54_R; settings: Clostridioides difficile
[2] = system: C. difficile VPI10463 ATCC 43255; assay: MIC broth microdilution, C. difficile VPI 10463; settings: Clostridioides difficile, ATCC 43255 / ATCC BAA-1803; VPI 10463, MtzS, 24 h, median of at least n = 4
Procedure: (§1) All compounds were tested for activity against a set of anaerobic C. difficile bacteria (630 ATCC BAA-1382, NAP1/027 M7404, NAP1/027 ATCC BAA-1803, VPI10463 ATCC 43255, CD26A54_S and CD26A54_R) and representative ESKAPE pathogens S. aureus (MRSA ATCC 43300), E. coli (ATCC 25922), K. pneumoniae (ATCC 700603), A. baumannii (ATCC 19606) and P. aeruginosa (ATCC 27853) using a standard broth microdilution assay. Selected compounds were tested for activity against H. pylori strains (26695, and clinical isolates MtzS 13/25, MtzR 98/285 and MtzR 13/61) using agar plate dilution, and for antimicrobial activity against […] Gram-positive bacterial strains: Enterococcus faecalis (VanA clinical isolate), Enterococcus faecium (MDR VanA ATCC 51559), Streptococcus pneumoniae (MDR ATCC 700677), S. aureus (MRSA ATCC 43300, MRSA clinical isolate, MRSA/DRSA clinical isolate, GISA NARSA NRS 1, GISA NARSA NRS 17, VRSA NARSA VRS1, VRSA NARSA VRS4 and VRSA NARSA VRS10) using broth microdilution. C. difficile strains were grown at 37 °C in a COY anaerobic chamber (5% H2, 10% CO2, 85% N2). H. pylori strains were grown at 37 °C under a microaerobic atmosphere (5% O2, 10% CO2). All facultative anaerobic bacteria were grown at 37 °C with normal atmospheric oxygen levels. All experiments were performed in duplicate with metronidazole, vancomycin, linezolid or colistin as positive controls for relevant strains (see Table 1). Positive growth control of bacteria and DMSO as well as a negative control of only media were included for every plate. Full assay details are provided in the supplementary information.
(§2) C. difficile ATCC BAA-1382, ATCC BAA-1803, ATCC 43255 and M7404 heat shocked spore stocks (10 µL) were transferred into the anaerobic chamber and 10 µL streaked onto pre-reduced (at least 2.5 hr in anaerobic chamber) BHIS agar plates supplemented with 0.1% w/v sodium taurocholate (BHIS(TA)). Plates were incubated for 24 hours prior to assay to give colonies of size 1-3mm diameter with characteristic uneven borders.
(§3) The minimum inhibition concentration was determined according to the CLSI Methods with modifications in broth and inoculum for C. difficile according to Babakhani et al.^7,8 Briefly, compounds were prepared to 20X final concentration in 100% water, 60% DMSO and 40% water or 60% DMSO and 40% media. The compounds along with standard antibiotics were serially diluted two-fold across the wells of 96-well non-binding surface plates (Non binding surface, Corning). The plates were placed in the anaerobic chamber overnight to reduce. C. difficile bacteria from BHIS(TA) agar plates were cultured anaerobically in BHIS at 37 °C overnight. A sample of culture was then diluted 40-fold in BHIS broth and incubated at 37 °C for approximately 4.5 hrs. The resultant mid-log phase culture (OD600= 0.5-0.6) was diluted to the final concentration of ~1×10^6 CFU/mL, then 50 µL was added to each well of the compound-containing 96-well plates. This gave final cell concentration of 5×10^5 CFU/mL, final volume 100 µL and 3% maximum DMSO concentration. Compound concentration was typically from 64 to 0.03 µg/mL. An antibiotic standard was included on each 96 well plate as well as a positive growth control (no compound) and sterility control (no bacteria). All the plates were covered and incubated at 37 °C for 24 h. MICs were the lowest concentration showing no visible growth.

[3] = system: C. difficile NAP1/027 CD26A54_S; assay: MIC broth microdilution, C. difficile CD26A54_S; settings: Clostridioides difficile
[4] = system: C. difficile 630 ATCC BAA-1382; assay: MIC broth microdilution, C. difficile 630; settings: Clostridioides difficile, ATCCBAA1382, MtzS, 24 h, median of at least n = 4
Procedure: as §1, §2, §3

[5] = 24 hr incubation, read-out: MIC C. difficile NAP1/027 CD26A54_R 24 hr
[6] = CD26A54_R, MtzR, 48 h growth, BHIS broth, n = 8, read-out: MIC C. difficile NAP1/027 CD26A54_R 48 h
[7] = 24 hr incubation, read-out: MIC C. difficile NAP1/027 CD26A54_S 24 hr
[8] = CD26A54_S, MtzS (intermediary), 48 h growth, read-out: MIC C. difficile NAP1/027 CD26A54_S 48 h

Cc1ncc([N+](=O)[O-])n1CCn1cc(-c2ncccn2)nn1 [Compound 4j, 1-(2-(2-methyl-5-nitro-1H-imidazol-1-yl)ethyl)-4-(2-pyrimidinyl)-1H-1,2,3-triazole]
MIC [1, 5]: 4 µg/mL (≈ 13.3 µM)
MIC [1, 6]: 4 µg/mL (≈ 13.3 µM)
MIC [2]: 2 µg/mL (≈ 6.66 µM)
MIC [3, 7]: 2 µg/mL (≈ 6.66 µM)
MIC [3, 8]: 2 to 4 µg/mL (≈ 6.66 to 13.3 µM)
MIC [4]: 2 µg/mL (≈ 6.66 µM)

Cc1ncc([N+](=O)[O-])n1CCn1cc(CN2CCS(=O)(=O)CC2)nn1 [Compound 4o, 1-(2-(2-methyl-5-nitro-1H-imidazol-1-yl)ethyl)-4-((1,1-dioxothiomorpholin-4-yl)methyl)-1H-1,2,3-triazole]
MIC [1, 5]: > 64 µg/mL
MIC [1, 6]: > 64 µg/mL
MIC [2]: > 64 µg/mL
MIC [3, 7]: > 64 µg/mL
MIC [3, 8]: > 64 µg/mL
MIC [4]: > 64 µg/mL

Cc1ncc([N+](=O)[O-])n1CCn1cc(CCO)nn1 [Compound 4p, 1-(2-(2-methyl-5-nitro-1H-imidazol-1-yl)ethyl)-4-(2-hydroxyethyl)-1H-1,2,3-triazole]
MIC [1, 5]: 8 to 16 µg/mL (≈ 30 to 60.1 µM)
MIC [1, 6]: 16 µg/mL (≈ 60.1 µM)
MIC [2]: 8 µg/mL (≈ 30 µM)
MIC [3, 7]: 8 µg/mL (≈ 30 µM)
MIC [3, 8]: 8 µg/mL (≈ 30 µM)
MIC [4]: 8 µg/mL (≈ 30 µM)

Cc1ncc([N+](=O)[O-])n1CCn1cc(CO)nn1 [Compound 4q, 1-(2-(2-methyl-5-nitro-1H-imidazol-1-yl)ethyl)-4-(hydroxymethyl)-1H-1,2,3-triazole]
MIC [1, 5]: 16 µg/mL (≈ 63.4 µM)
MIC [1, 6]: 16 µg/mL (≈ 63.4 µM)
MIC [2]: 16 µg/mL (≈ 63.4 µM)
MIC [3, 7]: 16 µg/mL (≈ 63.4 µM)
MIC [3, 8]: 16 to 32 µg/mL (≈ 63.4 to 127 µM)
MIC [4]: 16 µg/mL (≈ 63.4 µM)

Cc1ncc([N+](=O)[O-])n1CCn1cc(CCC(=O)O)nn1 [Compound 4r, sodium 1-(2-(2-methyl-5-nitro-1H-imidazol-1-yl)ethyl)-4-(carboxyethyl)-1H-1,2,3-triazole]
MIC [1, 5]: > 64 µg/mL
MIC [1, 6]: > 64 µg/mL
MIC [2]: > 64 µg/mL
MIC [3, 7]: > 64 µg/mL
MIC [3, 8]: > 64 µg/mL
MIC [4]: > 64 µg/mL

Cc1ncc([N+](=O)[O-])n1CCn1cc(C(=O)O)nn1 [Compound 4s, 1-(2-(2-methyl-5-nitro-1H-imidazol-1-yl)ethyl)-4-(carboxy)-1H-1,2,3-triazole]
MIC [1, 5]: > 64 µg/mL
MIC [1, 6]: > 64 µg/mL
MIC [2]: 64 µg/mL (≈ 240 µM)
MIC [3, 7]: > 64 µg/mL
MIC [3, 8]: > 64 µg/mL
MIC [4]: 64 µg/mL (≈ 240 µM)

Cc1ncc([N+](=O)[O-])n1CCn1cc(CN)nn1.O=C(O)C(F)(F)F [Compound 4t, 1-(2-(2-methyl-5-nitro-1H-imidazol-1-yl)ethyl)-4-(aminomethyl)-1H-1,2,3-triazole trifluoroacetate salt]
MIC [1, 5]: > 64 µg/mL
MIC [1, 6]: > 64 µg/mL
MIC [2]: > 64 µg/mL
MIC [3, 7]: > 64 µg/mL
MIC [3, 8]: > 64 µg/mL
MIC [4]: > 64 µg/mL
